Legend:
[1] = Population PK analysis of teduglutide; assay type: in vivo, human
patients with SBS [2] = assay: Time- and exposure-response analysis of prescribed PS; assay type: in vivo, human; settings: for percent change from baseline of prescribed PS volume (maximum) / percent change from baseline of PS volume (maximum): 0.05 mg/kg
[3] = cited from earlier work
patients with SBS [4] = settings: cited from earlier work
[5] = single dose, non-Japanese adults; cited from earlier work
[6] = single and repeated doses up to 20 mg

SMILES: CC[C@H](C)[C@H](NC(=O)[C@H](Cc1ccccc1)NC(=O)[C@H](CC(=O)O)NC(=O)[C@H](CCCNC(=N)N)NC(=O)[C@H](C)NC(=O)[C@H](C)NC(=O)[C@H](CC(C)C)NC(=O)[C@H](CC(N)=O)NC(=O)[C@H](CC(=O)O)NC(=O)[C@H](CC(C)C)NC(=O)[C@@H](NC(=O)[C@@H](NC(=O)[C@H](CC(N)=O)NC(=O)[C@H](CCSC)NC(=O)[C@H](CCC(=O)O)NC(=O)[C@H](CC(=O)O)NC(=O)[C@H](CO)NC(=O)[C@H](Cc1ccccc1)NC(=O)[C@H](CO)NC(=O)CNC(=O)[C@H](CC(=O)O)NC(=O)CNC(=O)[C@@H](N)Cc1c[nH]cn1)[C@@H](C)O)[C@@H](C)CC)C(=O)N[C@@H](CC(N)=O)C(=O)N[C@@H](Cc1c[nH]c2ccccc12)C(=O)N[C@@H](CC(C)C)C(=O)N[C@H](C(=O)N[C@@H](CCC(N)=O)C(=O)N[C@H](C(=O)N[C@@H](CCCCN)C(=O)N[C@H](C(=O)N[C@H](C(=O)N[C@@H](CC(=O)O)C(=O)O)[C@@H](C)O)[C@@H](C)CC)[C@@H](C)O)[C@@H](C)CC [teduglutide]
- impact of race (Japanese vs. non-Japanese) on CL/F ([1]; covariate analysis): did not have an impact
- impact of race (Japanese vs. non-Japanese) on K a ([1]; covariate analysis): did not have an impact
- impact of race (Japanese vs. non-Japanese) on V/F ([1]; covariate analysis): did not have an impact
- CL/F in female subjects, lower relative to male subjects ([1]; final PopPK model): 7%
- V/F of typical subject of 0.38 years relative to typical subject of 34 years ([1]; final PopPK model): fourfold higher
- absorption lag time ([1]; final PopPK model, corresponds to 0.299 h): 17.9 min
- time of peak concentrations after dosing ([1]; observed individual concentrations, adult and pediatric patients with SBS, s.c.): 3 to 5 h
- terminal elimination half-life (t 1/2), population estimate ([1]; patients with SBS, final PopPK model): 1.47 h
- mean C max,ss in Japanese adult patients, higher than in non-Japanese adult patients ([1]; s.c. 0.05 mg/kg, SBS): 23%
- mean C max,ss in Japanese pediatric patients, difference from non-Japanese pediatric patients ([1]; s.c. 0.05 mg/kg, SBS): ≤ 20%
- time to total absorption after dosing ([1]; suggested by K a 0.330 h^−1 and lag time 17.9 min): ~10 h
- percent change from baseline of prescribed PS volume (maximum) (patients with SBS [2]; Japanese pediatric patients with SBS): −29.7%
- percent change from baseline of PS volume (maximum) (patients with SBS [2]; adult Japanese patients with SBS): −62.6%
- percent change from baseline of PS volume (maximum) (patients with SBS [2]; adult non-Japanese patients with SBS): −54.9%
- percent change from baseline of prescribed PS volume (maximum) (patients with SBS [2]; non-Japanese pediatric patients with SBS): −74.7%
- maximum reduction in PS (patients with SBS [2]; daily dosing of 0.05 mg/kg): 5.76 L/week
- E max of teduglutide on prescribed PS volume (patients with SBS [2]; final time- and exposure-response model, change from baseline in prescribed PS volume): −5.76 L/week
- terminal elimination half-life [3]: ~ 2 h
- time of maximum plasma levels after dosing ([3]; s.c. injection): 3 to 5 h
- accumulation [3, 6]: no accumulation
- rate and extent of absorption vs dose [3, 6]: dose‐proportional
- incidence of adverse events leading to discontinuation of treatment (patients with SBS [4]; 0.05 mg/kg, adult patients with SBS, 24-week study): less than 5%
- responder rate (≥20% reduction from baseline in the volume of PS) (patients with SBS [4]; daily s.c. 0.05 mg/kg, patients with SBS, vs. 30% placebo, p = 0.002): 63%
- AUCinf in individuals with ESRD vs healthy volunteers [5]: more than twofold higher
- C max in individuals with ESRD vs healthy volunteers [5]: more than twofold higher

Source: publication PMC8604237 (Clinical and Translational Science, 2021)
